What was measured:
[1] = tested on: human umbilical vein endothelial cells (HUVEC); experiment: HUVEC+VEGF proliferation assay; assay type: cell-based; conditions: VEGF 6 ng/mL, 72 h, MTT
Protocol: HUVEC+VEGF Proliferation Assay
This assay determines the ability of a test compound to inhibit the growth factor-stimulated proliferation of human umbilical vein endothelial cells (“HUVEC”). HUVEC cells (passage 3–4; Clonetics, Corp.) were thawed into EGM2 culture medium (Clonetics Corp) in T75 flasks. Fresh EGM2 medium was added to the flasks 24 hours later. Four or five days later, cells were exposed to another culture medium (F12K medium supplemented with 10% fetal bovine serum (FBS), 60 μg/mL endothelial cell growth supplement (ECGS), and 0.1 mg/mL heparin). Exponentially-growing HUVEC cells were used in experiments thereafter. Ten to twelve thousand HUVEC cells were plated in 96-well dishes in 100 μl of rich, culture medium (described above). The cells were allowed to attach for 24 hours in this medium. The medium was then removed by aspiration and 105 μl of starvation media (F12K+1% FBS) was added to each well. After 24 hours, 15 μl of test agent dissolved in 1% DMSO in starvation medium or this vehicle alone was added into each treatment well; the final DMSO concentration was 0.1%. One hour later, 30 μl of VEGF (30 ng/mL) in starvation media was added to all wells except those containing untreated controls; the final VEGF concentration was 6 ng/mL. Cellular proliferation was quantified 72 hours later by MTT dye reduction, at which time cells were exposed for 4 hours MTT (Promega Corp.). Dye reduction was stopped by addition of a stop solution (Promega Corp.) and absorbance at 595 nm was determined on a 96-well spectrophotometer plate reader.

[2] = biological target: T1, PDGFRβ (Homo sapiens, UniProt P09619); experiment: PAE-PDGFRβ phosphorylation in PAE-PDGFRB cells assay; assay type: cell-based; conditions: PAE cells overexpressing human PDGFRβ, PDGF-BB stimulated; read-out: PAE PDGFR autophos IC50 (nM) AVG
T1 construct: expressed in transfected cells; host or cells: porcine aorta endothelial (PAE)-PDGFRβ cells
T1 sequence (P09619 33-1106): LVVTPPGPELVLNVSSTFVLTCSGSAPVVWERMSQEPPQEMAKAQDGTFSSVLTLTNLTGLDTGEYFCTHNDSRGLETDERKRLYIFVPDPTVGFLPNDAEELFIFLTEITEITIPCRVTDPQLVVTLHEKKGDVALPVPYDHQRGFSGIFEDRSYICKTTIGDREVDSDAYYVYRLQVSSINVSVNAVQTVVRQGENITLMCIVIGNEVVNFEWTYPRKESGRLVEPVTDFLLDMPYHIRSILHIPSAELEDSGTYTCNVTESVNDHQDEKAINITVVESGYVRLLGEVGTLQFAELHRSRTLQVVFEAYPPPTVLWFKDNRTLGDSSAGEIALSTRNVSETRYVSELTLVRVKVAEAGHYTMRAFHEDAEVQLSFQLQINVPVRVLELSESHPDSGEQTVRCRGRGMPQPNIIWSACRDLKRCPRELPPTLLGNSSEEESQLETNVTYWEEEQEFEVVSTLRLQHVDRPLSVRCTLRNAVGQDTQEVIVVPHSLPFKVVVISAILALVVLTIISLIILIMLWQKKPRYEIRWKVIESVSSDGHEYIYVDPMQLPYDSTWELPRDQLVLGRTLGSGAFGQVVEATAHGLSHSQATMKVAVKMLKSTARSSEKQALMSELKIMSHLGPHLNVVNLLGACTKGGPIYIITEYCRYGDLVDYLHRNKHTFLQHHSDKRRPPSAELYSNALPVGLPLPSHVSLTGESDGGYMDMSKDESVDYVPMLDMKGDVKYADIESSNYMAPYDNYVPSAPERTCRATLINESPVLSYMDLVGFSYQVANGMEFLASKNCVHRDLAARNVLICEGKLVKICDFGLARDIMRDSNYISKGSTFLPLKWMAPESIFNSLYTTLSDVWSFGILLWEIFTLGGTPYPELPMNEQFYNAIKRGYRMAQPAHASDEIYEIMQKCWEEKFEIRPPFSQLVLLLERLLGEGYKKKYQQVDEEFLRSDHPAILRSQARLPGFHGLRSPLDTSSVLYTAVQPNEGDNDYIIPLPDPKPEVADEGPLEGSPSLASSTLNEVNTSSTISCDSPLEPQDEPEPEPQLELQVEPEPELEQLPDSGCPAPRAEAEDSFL
How it was run: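 PAE cells overexpressing human PDGFRβ, serum-starved 16 h (0.1% FBS), were given compound for 1 h at 37 °C (0.5% DMSO) and then stimulated with 1 μg/mL PDGF-BB plus 2 mM Na3VO4 for 8 min. Receptor autophosphorylation was read by capture ELISA (HRP-PY20, TMB, 450 nm); IC50 from 4-parameter fit.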

[3] = biological target: T2, unphosphorylated VEGF-R2Δ50 (FLVK) (Homo sapiens, UniProt P35968, DEL940-989/E990V); experiment: VEGF-R2 coupled spectrophotometric assay, unphosphorylated VEGF-R2Δ50 (FLVK); assay type: biochemical; conditions: unphosphorylated VEGF-R2Δ50; for inhibition at 0.05 µM: read-out: FLVK (% inh @ 50 nM)
T2 construct: VEGF-R2Δ50 contains residues 806–939 and 990–1171; made in house; host or cells: baculovirus/insect cell system
T2 sequence (P35968 with tags, fused parts or gaps DEL940-989/E990V limits assumed): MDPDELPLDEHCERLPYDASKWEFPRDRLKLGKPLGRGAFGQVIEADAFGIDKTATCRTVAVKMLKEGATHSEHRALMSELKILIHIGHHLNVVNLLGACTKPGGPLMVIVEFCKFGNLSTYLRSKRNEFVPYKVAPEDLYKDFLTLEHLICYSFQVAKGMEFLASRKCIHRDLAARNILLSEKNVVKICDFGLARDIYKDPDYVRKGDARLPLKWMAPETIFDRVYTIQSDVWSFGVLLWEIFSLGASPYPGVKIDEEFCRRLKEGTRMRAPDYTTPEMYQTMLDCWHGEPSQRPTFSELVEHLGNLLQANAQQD
How it was run: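 Baculovirus-expressed human VEGF-R2Δ50 (kinase insert partly deleted, E990V), unphosphorylated form; ADP production coupled via PK/LDH to NADH oxidation, read at 340 nm. 20 mM poly(E4Y1), 3 mM ATP, 60 mM MgCl2, 2 mM MnCl2, 200 mM HEPES pH 7.5; 5–40 nM enzyme. Ki from Morrison tight-binding fit.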

[4] = tested on: Huvec; experiment: bFGF Huvec proliferation; assay type: cell-based, human

Compound | IC50 ([1]; Homo sapiens, HUVEC) [nM] | IC50 [2] [nM] | inhibition at 0.05 µM ([3]; 50 nM compound) [%] | IC50 ([4]; Homo sapiens, HUVEC) [nM] | Ki [3] [nM] | IC50 [1] [nM] | FLVK (% inh @ 50 nM) ([3]; 50 nM compound) [%] | IC50 ([4]; bFGF) [nM]
CNC(=O)c1c(C)n(C)c2cc(Oc3ccnc4cc(-c5ccc(OC)cn5)sc34)ccc12 [Example 48, 6-[2-(5-Methoxy-pyridin-2-yl)-thieno[3,2-b]pyridin-7-yloxy]-1,2-dimethyl-1H-indole-3-carboxylic acid methylamide] | 0.94 | 21 | 91 | 239 |  |  |  | 
Cc1sc2cc(Oc3ccnc4cc(-c5nccn5C)sc34)ccc2c1C(=O)NCC1CC1 [Example 119, 2-Methyl-6-{[2-(1-methyl-1-imidazol-2-yl)thieno[3,2-b]pyridin-7-yl]oxy}benzo[b]thiophene-3-carboxylic acid (cyclopropylmethyl)amide] | 1.46 | 90.6 | 95 | 1830 | 0.375 |  |  | 
CNC(=O)c1c(C)oc2cc(Oc3ccnc4cc(-c5nc(CO)cs5)sc34)ccc12 [Example 81, 6-[2-(4-Hydroxymethyl-thiazol-2-yl)-thieno[3,2-b]pyridin-7-yloxy]-2-methyl-benzofuran-3-carboxylic acid methylamide] | 0.09 | 7 | 100 | 26 | 0.2 |  |  | 
Cc1c(C(=O)NCCCO)c2ccc(Oc3ccnc4cc(C(=O)N5CCC5)sc34)cc2n1C [Example 63, 6-[2-(Azetidine-1-carbonyl)-thieno[3,2-b]pyridin-7-yloxy}-1,2-dimethyl-1H-indole-3-carboxylic acid (3-hydroxy-propyl)-amide] | 10 | 84 | 67 | 10000 | 9.33 |  |  | 
CCCNC(=O)c1c(C)oc2cc(Oc3ccnc4cc(C(=O)N5CC[C@@H](OC)C5)sc34)ccc12 [Example 92, 6-[2-(3-Methoxy-pyrrolidine-1-carbonyl)-thieno[3,2-b]pyridin-7-yloxy]-2-methyl-benzofuran-3-carboxylic acid propyl amide] | 0.18 | 4.4 | 100 | 13 | 0.2 |  |  | 
Cc1oc2cc(Oc3ccnc4cc(C(=O)N5CC[C@@H](O)C5)sc34)ccc2c1C(=O)NCC(C)C [Example 88, 2-Methyl-6[2-(3-hydroxy-pyrrolidine-1-carbonyl)-thieno[3,2-b]pyridin-7-yloxy]-benzofuran-3-carboxylic acid isobutyl amide] | 0.46 | 15.1 | 94 | 363 | 0.574 |  |  | 
CNC(=O)c1c(C)n(C)c2cc(Oc3ccnc4cc(C(=O)N5CCCC5)sc34)ccc12 [Example 28, 1,2-Dimethyl-6-[2-(pyrrolidine-1-carbonyl)-thieno[3,2-b]pyridin-7-yloxy]-1H-indole-3-carboxylic acid methylamide] | 0.272 | 15 | 78 | 462 | 2.8 |  |  | 
Cc1sc2cc(Oc3ccnc4cc(C(=O)N5CCC5)sc34)ccc2c1C(=O)NC1CC1 [Example 127, 6-{[2-(Azetidin-1-ylcarbonyl)thieno[3,2-b]pyridin-7-yl]oxy}2-methylbenzo[b]thiophene-3-carboxylic acid cyclopropylamide] | 1 | 102 | 100 | 41 | 0.2 |  |  | 
Cc1sc2cc(Oc3ccnc4cc(-c5nccn5C)sc34)ccc2c1C(=O)NC1CC1 [Example 117, 2-Methyl-6-{[2-(1-methyl-1H-imidazol-2-yl)thieno[3,2-b]pyridin-7-yl]oxy}benzo[b]thiophene-3-carboxylic acid cyclopropylamide] | 0.07 | 189 | 87 | 86 | 0.2 |  |  | 
CNC(=O)c1c(C)oc2cc(Oc3ccnc4cc(C(=O)N5CCC[C@H]5COC)sc34)ccc12 [Example 79, 6-(2-[(S)-2-(methoxymethyl)pyrrolidine-1-carbonyl]thieno[3,2-b]pyridin-7-yloxy)-2-methyl-benzofuran-3-carboxylic acid methyl amide] | 0.223 | 15.5 | 90 | 130 | 0.276 |  |  | 
COC[C@@H]1CCCN1C(=O)c1cc2nccc(Oc3ccc4c(C(=O)NCC(C)C)c(C)oc4c3)c2s1 (stereo in doubt) [Example 85, 6[2-(2-Methoxymethyl-pyrrolidine-1-carbonyl)-thieno[3,2-b]pyridin-7-yloxy]-2-methyl-benzofuran-3-carboxylic acid isobutyl amide] | 3.92 | 27.3 | 83 | 6990 | 1.71 |  |  | 
CNC(=O)c1c(C)n(C)c2cc(Oc3ccnc4cc(C(=O)N5CCC5)sc34)ccc12 [Example 25] | 0.45 | 12 | 70 | 7460 | 4.08 |  |  | 
Cc1c(C(=O)NC2CC2)c2ccc(Oc3ccnc4cc(C(=O)N5CCC[C@H]5CO)sc34)cc2n1C [Example 54, N-Cyclopropyl-6-[(2-{[(2S)-2-(hydroxymethyl)pyrrolidin-1-yl]carbonyl}thieno[3,2-b]pyridin-7-yl)oxy]-1,2-dimethyl-1H-indole-3-carboxamide] | 1.8 | 133 | 89 | 10000 | 1.71 |  |  | 
Methoxy-azetidine-1-carbonyl)-thieno[3,2-b]pyridin-7-yloxy]-2-methyl-benzofuran-3-carboxylic acid methylamide [Example 78] |  | 14.8 |  |  | 0.221 | 0.507 | 93 | 30
Cc1c(C(=O)NCC2CC2)c2ccc(Oc3ccnc4cc(C(=O)N5CC[C@@H](O)C5)sc34)cc2n1C [Example 56] | 22 | 109 | 60 | 10000 | 3.8 |  |  | 
CNC(=O)c1c(C)oc2cc(Oc3ccnc4cc(C(=O)N5CCC5)sc34)ccc12 [Example 77, 6[2-(Azetidine-1-carbonyl)-thieno[3,2-b]pyridin-7-yloxy]-2-methyl-benzofuran-3-carboxylic acid methylamide] | 0.2 | 7.4 | 99 | 8 | 0.2 |  |  | 
CO[C@@H]1CCN(C(=O)c2cc3nccc(Oc4ccc5c(C(=O)NCCCO)c(C)sc5c4)c3s2)C1 [Example 124, 6-[(2-{[(3R)-3-Methoxypyrrolidin-1-yl]carbonyl}thieno[3,2-b]pyridin-7-yl)oxy]-2-methylbenzo[b]thiophene-3-carboxylic acid 3-hydroxypropylamide] | 1.6 | 376 | 82 | 8240 | 2.19 |  |  | 
CCc1oc2cc(Oc3ccnc4cc(-c5nccn5C)sc34)ccc2c1C(=O)NC [Example 94, 2-Ethyl-6[2-(1-methyl-1H-imidazol-2-yl)-thieno[3,2-b]pyridin-7-yloxy]-benzofuran-3-carboxylic acid methylamide] | 0.7 | 112 | 81 | 251 | 1.45 |  |  | 

From US7045528B2, “Benzofused heterozryl amide derivatives of thienopyridines useful as therapeutic agents, pharmaceutical compositions including the same, and methods for their use” (Agouron Pharmaceuticals, Inc., priority 2002, dated 2006)
